Series [1] has as its system pancreatic cancer patient. The series can be described thus: Patient treated with neoadjuvant paricalcitol plus gemcitabine/abraxane. Format: in vivo, human. On the procedure: Thus, in some examples, paricalcitol is administered at 5 or 10 μg IV three times weekly for two-three weeks before surgery. […] Paricalcitol can be given for 28 days approximately prior to planned surgery, and can be continued up to the day before surgery, since there is no relevant toxicity of this micronutrient. Last dose can be 24 h before surgery (if surgery is delayed, and additional days of therapy may be given to reach the day before surgery).

For series [2] the following is noted: cited from earlier work.
The test system of the next series is PDA patients. As to conditions: standard of care; cited from earlier work.
Where [3] appears, read: 28 days paricalcitol with one cycle of gemcitabine/abraxane.

On to `C[C@H](/C=C/[C@H](C)C(C)(C)O)[C@H]1CC[C@H]2/C(=C/C=C3C[C@@H](O)C[C@H](O)C3)CCC[C@]12C` [Paricalcitol, 19-nor-1,25-(OH)2-vitamin D2], for which, in series [1] (setting [3]), the “adverse clinical effects before surgery” value is listed as “No adverse clinical effects” and the calcium levels result is “no elevation calcium levels”. Also, the “histological analysis of resected tumor” value in series [1] (after surgery) is “granulomas with few cancer cells”. For the same compound, the “serum CA 19-9 level after treatment” value in series [1] (reduced from 120 U/mL, normal range 0-37 U/mL) stood at 40 U/mL. Besides, the “phosphorus and calcium levels” value in series [2] (first 30 days of treatment) was “stable phosphorus and calcium levels”. For the same compound, in series [2] (over 600 patients), the mean plasma clearance is 1.75 L/h.

Turning to `Cl.Nc1ccn([C@@H]2O[C@H](CO)[C@@H](O)C2(F)F)c(=O)n1` [gemcitabine, 2′-Deoxy-2′,2′-difluorocytidine monohydrochloride], the “benefit to PDA patients” value in the series on PDA patients is reported as 1.5 month.

These data come from patent publication US9895381B2, “Vitamin D receptor agonists to treat diseases involving CXCL12 activity” (Salk Institute for Biological Studies, priority 2013, dated 2018).
